Results: PubChem BioAssay (NCI)
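48-hour exposure; five concentrations; linearly interpolated endpoints. At the GI50, growth is halved. At the TGI there is no net growth.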

What was measured:
Assay in all cases: NCI anticancer screen, dose series, 48 h
786-0 renal = system: 786-0 renal
A498 renal = system: A498 renal
A549 NSCLC = system: A549 NSCLC
ACHN renal = system: ACHN renal
BT-549 breast = system: BT-549 breast
CAKI-1 renal = system: CAKI-1 renal
CCRF-CEM leukemia = system: CCRF-CEM leukemia
COLO 205 colon = system: COLO 205 colon
DU-145 prostate = system: DU-145 prostate
EKVX NSCLC = system: EKVX NSCLC
HCC-2998 colon = system: HCC-2998 colon
HCT-116 colon = system: HCT-116 colon
HCT-15 colon = system: HCT-15 colon
HL-60(TB) leukemia = system: HL-60(TB) leukemia
HOP-62 NSCLC = system: HOP-62 NSCLC
HOP-92 NSCLC = system: HOP-92 NSCLC
HS 578T breast = system: HS 578T breast
HT29 colon = system: HT29 colon
IGROV1 ovarian = system: IGROV1 ovarian
K-562 leukemia = system: K-562 leukemia
KM12 colon = system: KM12 colon
LOX IMVI melanoma = system: LOX IMVI melanoma
M14 melanoma = system: M14 melanoma
MALME-3M melanoma = system: MALME-3M melanoma
MCF7 breast = system: MCF7 breast
MDA-MB-231 breast = system: MDA-MB-231 breast
MDA-MB-435 = system: MDA-MB-435
MDA-MB-468 breast = system: MDA-MB-468 breast
MOLT-4 leukemia = system: MOLT-4 leukemia
NCI-H226 lung = system: NCI-H226 lung
NCI-H23 lung = system: NCI-H23 lung
NCI-H460 lung = system: NCI-H460 lung
NCI-H522 lung = system: NCI-H522 lung
NCI/ADR-RES ovarian = system: NCI/ADR-RES ovarian
OVCAR-3 ovarian = system: OVCAR-3 ovarian
OVCAR-4 ovarian = system: OVCAR-4 ovarian
OVCAR-5 ovarian = system: OVCAR-5 ovarian
OVCAR-8 ovarian = system: OVCAR-8 ovarian
PC-3 prostate = system: PC-3 prostate
RPMI-8226 leukemia = system: RPMI-8226 leukemia
RXF 393 renal = system: RXF 393 renal
SF-268 CNS = system: SF-268 CNS
SF-295 CNS = system: SF-295 CNS
SF-539 CNS = system: SF-539 CNS
SK-MEL-2 melanoma = system: SK-MEL-2 melanoma
SK-MEL-28 melanoma = system: SK-MEL-28 melanoma
SK-MEL-5 melanoma = system: SK-MEL-5 melanoma
SK-OV-3 ovarian = system: SK-OV-3 ovarian
SN12C renal = system: SN12C renal
SNB-19 CNS = system: SNB-19 CNS
SNB-75 CNS = system: SNB-75 CNS
SR leukemia = system: SR leukemia
SW-620 colon = system: SW-620 colon
T-47D breast = system: T-47D breast
TK-10 renal = system: TK-10 renal
U251 CNS = system: U251 CNS
UACC-257 melanoma = system: UACC-257 melanoma
UACC-62 melanoma = system: UACC-62 melanoma
UO-31 renal = system: UO-31 renal

O=C(NO)c1ccc(CNC(=O)[C@H]2Cc3c([nH]c4ccccc34)[C@H](c3ccc(Cl)cc3)N2)cc1
GI50 (786-0 renal): 3710 nM | TGI (786-0 renal): 14200 nM | GI50 (A498 renal): 2060 nM | TGI (A498 renal): 9060 nM | GI50 (A549 NSCLC): 3970 nM | TGI (A549 NSCLC): > 22000 nM | GI50 (ACHN renal): 3050 nM | TGI (ACHN renal): 9570 nM | GI50 (BT-549 breast): 4930 nM | TGI (BT-549 breast): 11000 nM | GI50 (CAKI-1 renal): 2330 nM | TGI (CAKI-1 renal): 9730 nM | GI50 (CCRF-CEM leukemia): 617 nM | TGI (CCRF-CEM leukemia): > 22000 nM | GI50 (COLO 205 colon): 719 nM | TGI (COLO 205 colon): 3380 nM | GI50 (DU-145 prostate): 1080 nM | TGI (DU-145 prostate): > 22000 nM | GI50 (EKVX NSCLC): 2650 nM | TGI (EKVX NSCLC): 16400 nM | GI50 (HCC-2998 colon): 605 nM | TGI (HCC-2998 colon): 3080 nM | GI50 (HCT-116 colon): 609 nM | TGI (HCT-116 colon): 3720 nM | GI50 (HCT-15 colon): 4260 nM | TGI (HCT-15 colon): > 22000 nM | GI50 (HL-60(TB) leukemia): 706 nM | TGI (HL-60(TB) leukemia): 3130 nM | GI50 (HOP-62 NSCLC): 1270 nM | TGI (HOP-62 NSCLC): 7420 nM | GI50 (HOP-92 NSCLC): 930 nM | TGI (HOP-92 NSCLC): 4480 nM | GI50 (HS 578T breast): 1010 nM | TGI (HS 578T breast): > 22000 nM | GI50 (HT29 colon): 838 nM | TGI (HT29 colon): > 22000 nM | GI50 (IGROV1 ovarian): 1200 nM | TGI (IGROV1 ovarian): 4270 nM | GI50 (K-562 leukemia): 720 nM | TGI (K-562 leukemia): > 22000 nM | GI50 (KM12 colon): 2360 nM | TGI (KM12 colon): 6710 nM | GI50 (LOX IMVI melanoma): 1090 nM | TGI (LOX IMVI melanoma): 4760 nM | GI50 (M14 melanoma): 2200 nM | TGI (M14 melanoma): 8420 nM | GI50 (MALME-3M melanoma): 410 nM | TGI (MALME-3M melanoma): 2310 nM | GI50 (MCF7 breast): 874 nM | TGI (MCF7 breast): 8360 nM | GI50 (MDA-MB-231 breast): 887 nM | TGI (MDA-MB-231 breast): 4000 nM | GI50 (MDA-MB-435): 959 nM | TGI (MDA-MB-435): 4360 nM | GI50 (MDA-MB-468 breast): 380 nM | TGI (MDA-MB-468 breast): 1140 nM | GI50 (MOLT-4 leukemia): 563 nM | TGI (MOLT-4 leukemia): > 22000 nM | GI50 (NCI-H226 lung): 2270 nM | TGI (NCI-H226 lung): 11600 nM | GI50 (NCI-H23 lung): 1330 nM | TGI (NCI-H23 lung): 4260 nM | GI50 (NCI-H460 lung): 1020 nM | TGI (NCI-H460 lung): > 22000 nM | GI50 (NCI-H522 lung): 584 nM | TGI (NCI-H522 lung): 3160 nM | GI50 (NCI/ADR-RES ovarian): 3350 nM | TGI (NCI/ADR-RES ovarian): > 22000 nM | GI50 (OVCAR-3 ovarian): 1230 nM | TGI (OVCAR-3 ovarian): 9150 nM | GI50 (OVCAR-4 ovarian): 3730 nM | TGI (OVCAR-4 ovarian): > 22000 nM | GI50 (OVCAR-5 ovarian): 456 nM | TGI (OVCAR-5 ovarian): 3010 nM | GI50 (OVCAR-8 ovarian): 942 nM | TGI (OVCAR-8 ovarian): > 22000 nM | GI50 (PC-3 prostate): 1760 nM | TGI (PC-3 prostate): 9170 nM | GI50 (RPMI-8226 leukemia): 564 nM | TGI (RPMI-8226 leukemia): > 22000 nM | GI50 (RXF 393 renal): 455 nM | TGI (RXF 393 renal): 2250 nM | GI50 (SF-268 CNS): 2920 nM | TGI (SF-268 CNS): 12500 nM | GI50 (SF-295 CNS): 1810 nM | TGI (SF-295 CNS): 4750 nM | GI50 (SF-539 CNS): 1140 nM | TGI (SF-539 CNS): 4240 nM | GI50 (SK-MEL-2 melanoma): 2770 nM | TGI (SK-MEL-2 melanoma): 7030 nM | GI50 (SK-MEL-28 melanoma): 878 nM | TGI (SK-MEL-28 melanoma): 3620 nM | GI50 (SK-MEL-5 melanoma): 721 nM | TGI (SK-MEL-5 melanoma): 2710 nM | GI50 (SK-OV-3 ovarian): 2010 nM | TGI (SK-OV-3 ovarian): 5900 nM | GI50 (SN12C renal): 2410 nM | TGI (SN12C renal): 9150 nM | GI50 (SNB-19 CNS): 2260 nM | TGI (SNB-19 CNS): 5300 nM | GI50 (SNB-75 CNS): 2260 nM | TGI (SNB-75 CNS): 7580 nM | GI50 (SR leukemia): 1150 nM | TGI (SR leukemia): > 22000 nM | GI50 (SW-620 colon): 687 nM | TGI (SW-620 colon): 2370 nM | GI50 (T-47D breast): 600 nM | TGI (T-47D breast): 5440 nM | GI50 (TK-10 renal): 1510 nM | TGI (TK-10 renal): 14600 nM | GI50 (U251 CNS): 1210 nM | TGI (U251 CNS): 5800 nM | GI50 (UACC-257 melanoma): 1230 nM | TGI (UACC-257 melanoma): > 22000 nM | GI50 (UACC-62 melanoma): 538 nM | TGI (UACC-62 melanoma): 2940 nM | GI50 (UO-31 renal): 2640 nM | TGI (UO-31 renal): 6270 nM
